Reference: patent publication US20100105636A1, “T-TYPE CALCIUM CHANNEL BLOCKER” (Nissan Chemical Industries, Ltd., priority 2003, published 2010)

Experiments:
Assay type in all cases: cell-based
[1] = biological target: T1, T-type Ca channel (α1G) (Homo sapiens, UniProt O43497); assay: Effect on T-type Ca channel expressed in BHK cells (whole cell patch clamp), Pharmacological Test Example 1; details: BHK cells expressing T-type Ca channel (α1G), depolarization pulse −20 mV from −80 mV, 5 minutes after application, average value vs vehicle control (100%), read-out: Inhibition (%) of Ca current
T1 construct: expressed in transfected cells; host or cells: BHK (baby hamster kidney) cells
Experimental: Effect on T-Type Ca Channel Expressed in Mammalian Cells (BHK Cells)
(§1) An electrophysiological evaluation was carried out by use of BHK (baby hamster kidney) cells in which T-type Ca channel (α1G) was expressed according to the method of Wakamori M et al. (Wakamori M et al.: J Biol Chem 273, 34857-34867, 1998) based on the whole cell patch clamp method. Each Ca-ion current was measured through a patch clamp amplifier as an inward current when depolarization pulse (−20 mV) was applied to cells maintained at a membrane potential of −80 mV. Each compound was dissolved in extracellular solution and applied with perfusion. At 5 minutes after the application, any variation in Ca-ion current was measured. The results are shown in Table 1 as Ca current inhibition (%, average value) of the compound of the present invention to Ca current (100%) in vehicle control.

[2] = tested on: L-type Ca channel; assay: Effect on L-type Ca channel expressed in BHK cells (whole cell patch clamp), Pharmacological Test Example 2; details: 10 μM; BHK cells expressing L-type Ca channel; depolarization pulse 10 mV from −80 mV; 5 minutes after application; average value vs vehicle control (100%)
Experimental: (§2) Effect on L-Type and T-Type Ca Channel Expressed in Mammalian Cells (BHK Cells)
as §1, with “which L-type Ca channel or” for “which”, “pulse (10 mV in L-type Ca channel, −20 mV in T-type Ca channel)” for “pulse (−20 mV)”, “mV. Compound (9)” for “mV. Each compound”, “Table 2” for “Table 1”

[3] = biological target: T1, T-type Ca channel (α1G); assay: Effect on T-type Ca channel expressed in BHK cells (whole cell patch clamp), Pharmacological Test Example 2; details: BHK cells expressing T-type Ca channel (α1G), depolarization pulse −20 mV from −80 mV, 5 minutes after application, average value vs vehicle control (100%), read-out: Inhibition (%) of Ca current, T-type
Experimental: as §2
as §1, with “which L-type Ca channel or” for “which”, “pulse (10 mV in L-type Ca channel, −20 mV in T-type Ca channel)” for “pulse (−20 mV)”, “mV. Compound (9)” for “mV. Each compound”, “Table 2” for “Table 1”

T1 sequence (O43497 whole entry): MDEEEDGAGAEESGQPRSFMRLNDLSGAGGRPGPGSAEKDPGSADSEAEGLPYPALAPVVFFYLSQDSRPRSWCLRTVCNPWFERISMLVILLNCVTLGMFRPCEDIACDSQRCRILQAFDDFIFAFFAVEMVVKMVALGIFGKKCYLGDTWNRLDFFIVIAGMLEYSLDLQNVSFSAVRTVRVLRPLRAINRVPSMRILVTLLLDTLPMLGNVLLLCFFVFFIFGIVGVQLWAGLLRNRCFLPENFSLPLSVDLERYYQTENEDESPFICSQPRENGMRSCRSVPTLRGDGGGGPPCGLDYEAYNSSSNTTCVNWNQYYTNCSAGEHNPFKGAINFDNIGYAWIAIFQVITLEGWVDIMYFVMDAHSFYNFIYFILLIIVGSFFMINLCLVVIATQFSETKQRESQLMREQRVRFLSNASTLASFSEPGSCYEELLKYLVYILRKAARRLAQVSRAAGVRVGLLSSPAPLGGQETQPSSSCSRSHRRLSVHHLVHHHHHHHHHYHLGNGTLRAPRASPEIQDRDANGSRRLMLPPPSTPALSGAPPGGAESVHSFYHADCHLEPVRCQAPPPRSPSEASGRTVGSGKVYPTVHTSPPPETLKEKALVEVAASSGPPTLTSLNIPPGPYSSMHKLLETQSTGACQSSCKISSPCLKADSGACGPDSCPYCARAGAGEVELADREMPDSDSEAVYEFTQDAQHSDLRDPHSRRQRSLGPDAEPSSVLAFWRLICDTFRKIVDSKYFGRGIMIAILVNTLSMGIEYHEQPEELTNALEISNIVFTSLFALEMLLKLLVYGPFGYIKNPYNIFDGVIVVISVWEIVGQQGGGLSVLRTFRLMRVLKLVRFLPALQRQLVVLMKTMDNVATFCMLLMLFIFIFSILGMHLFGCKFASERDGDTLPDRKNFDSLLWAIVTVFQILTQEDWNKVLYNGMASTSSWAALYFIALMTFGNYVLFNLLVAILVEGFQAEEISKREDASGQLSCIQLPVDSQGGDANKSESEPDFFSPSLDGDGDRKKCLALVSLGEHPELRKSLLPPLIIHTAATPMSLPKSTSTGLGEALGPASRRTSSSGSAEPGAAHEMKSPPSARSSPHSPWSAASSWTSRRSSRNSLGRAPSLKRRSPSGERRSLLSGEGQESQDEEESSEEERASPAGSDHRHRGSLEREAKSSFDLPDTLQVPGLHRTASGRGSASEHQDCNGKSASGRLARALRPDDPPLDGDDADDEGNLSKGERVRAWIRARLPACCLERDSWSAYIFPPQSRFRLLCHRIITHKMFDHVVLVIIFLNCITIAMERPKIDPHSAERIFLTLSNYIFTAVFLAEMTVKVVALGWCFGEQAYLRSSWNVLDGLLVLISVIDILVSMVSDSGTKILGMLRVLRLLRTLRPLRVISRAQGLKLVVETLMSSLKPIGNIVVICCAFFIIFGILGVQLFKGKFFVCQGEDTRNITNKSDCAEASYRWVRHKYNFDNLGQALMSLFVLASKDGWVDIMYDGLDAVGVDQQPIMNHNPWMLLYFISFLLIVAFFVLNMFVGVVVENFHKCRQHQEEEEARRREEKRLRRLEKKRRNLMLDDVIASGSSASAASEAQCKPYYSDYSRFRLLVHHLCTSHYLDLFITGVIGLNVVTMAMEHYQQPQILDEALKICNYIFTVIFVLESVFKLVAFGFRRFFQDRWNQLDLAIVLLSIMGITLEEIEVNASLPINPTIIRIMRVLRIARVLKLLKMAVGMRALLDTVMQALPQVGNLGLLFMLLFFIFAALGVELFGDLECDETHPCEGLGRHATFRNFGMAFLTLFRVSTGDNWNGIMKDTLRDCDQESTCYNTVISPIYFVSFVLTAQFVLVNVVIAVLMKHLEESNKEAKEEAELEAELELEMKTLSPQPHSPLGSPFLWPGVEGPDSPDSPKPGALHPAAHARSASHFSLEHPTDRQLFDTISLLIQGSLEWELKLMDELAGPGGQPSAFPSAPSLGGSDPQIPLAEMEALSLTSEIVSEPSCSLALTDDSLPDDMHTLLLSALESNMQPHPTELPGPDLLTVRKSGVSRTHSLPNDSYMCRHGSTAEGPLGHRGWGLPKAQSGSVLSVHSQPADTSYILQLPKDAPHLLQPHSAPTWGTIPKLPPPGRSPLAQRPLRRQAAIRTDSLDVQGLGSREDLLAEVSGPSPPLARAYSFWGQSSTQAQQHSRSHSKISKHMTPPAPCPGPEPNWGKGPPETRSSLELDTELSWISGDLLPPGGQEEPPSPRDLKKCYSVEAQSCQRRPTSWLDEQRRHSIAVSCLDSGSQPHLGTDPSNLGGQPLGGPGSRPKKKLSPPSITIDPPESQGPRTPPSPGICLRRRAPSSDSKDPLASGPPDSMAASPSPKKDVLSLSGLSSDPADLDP

SMILES	inhibition at 10 µM [1]	Inhibition (%) of Ca current, L-type [2]	inhibition at 10 µM [3]
Cc1nc(C)c(P2(=O)OCC(C)(C)CO2)c(-c2cccc([N+](=O)[O-])c2)c1C(=O)OCCN(Cc1ccccc1)c1ccccc1 [Compound (4)]	23.9%		
Cc1nc(C)c(P2(=O)OCC(C)(C)CO2)c(-c2cccc([N+](=O)[O-])c2)c1C(=O)OCCNc1ccccc1 [Compound (5)]	53.9%		
Cc1nc(C)c(P2(=O)OCC(C)(C)CO2)c(-c2cccc([N+](=O)[O-])c2)c1C(=O)OCCN1CCN(C(c2ccccc2)c2ccccc2)CC1 [Compound (6)]	43.6%		
COC(=O)c1c(C)nc(C)c(C(=O)OC2CCCN(Cc3ccccc3)C2)c1-c1cccc([N+](=O)[O-])c1 (stereo not shown) [Compound (7)]	45.8%		
COC(=O)C1=C(C)N(C)C(C)=C(C(=O)OC2CCCN(Cc3ccccc3)C2)C1c1cccc([N+](=O)[O-])c1 (stereo not shown) [Compound (8)]	30%		
CC1=C(C(=O)OCCN(Cc2ccccc2)c2ccccc2)C(c2cccc([N+](=O)[O-])c2)C(P2(=O)OCC(C)(C)CO2)=C(C)N1CCN1CCOCC1 (stereo not shown) [Compound (9)]		9.9%	48.9%
